Where a name gives a salt, the structure may show the parent alone. Read-outs that look alike come from different tables or passages of the source.
What was measured:
Type in all cases: biochemical
recombinant PRL-1 = target: T1, recombinant PRL-1 (Homo sapiens, UniProt Q93096); test: In vitro phosphatase assay (DiFMUP hydrolysis), PRL-1
T1 construct: 6xHis (N, cleaved yes); made in house; host or cells: E. coli One Shot BL21 Star
T1 sequence (Q93096 1-173): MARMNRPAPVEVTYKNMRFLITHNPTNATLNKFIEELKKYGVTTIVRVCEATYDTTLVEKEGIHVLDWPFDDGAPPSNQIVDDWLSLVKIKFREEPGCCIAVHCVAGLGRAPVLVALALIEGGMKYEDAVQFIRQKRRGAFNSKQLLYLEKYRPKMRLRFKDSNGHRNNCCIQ

recombinant PRL-2 = target: T2, recombinant PRL-2 (Homo sapiens, UniProt Q12974); test: In vitro phosphatase assay (DiFMUP hydrolysis), PRL-2;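 also: PRL-2 activity read as DiFMUP hydrolysis after 20 min at room temperature with drug, enzyme first pre-reduced at 4 °C for 20 min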
T2 construct: 6xHis (N, cleaved yes); made in house; host or cells: E. coli One Shot BL21 Star
T2 sequence (Q12974 1-167): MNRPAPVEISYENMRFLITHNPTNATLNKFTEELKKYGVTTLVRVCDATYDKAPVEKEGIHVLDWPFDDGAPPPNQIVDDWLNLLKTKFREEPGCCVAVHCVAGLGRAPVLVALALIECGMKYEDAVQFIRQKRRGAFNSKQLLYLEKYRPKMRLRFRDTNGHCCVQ

recombinant PRL-3 = target: T3, recombinant PRL-3 (Homo sapiens, UniProt O75365); test: In vitro phosphatase assay (DiFMUP hydrolysis), PRL-3
T3 construct: 6xHis (N, cleaved yes); made in house; host or cells: E. coli One Shot BL21 Star

[1] = FDA-approved drug screen, compared to DMSO
[2] = FDA-approved drug screen, activity compared to DMSO

T3 sequence (O75365 whole entry): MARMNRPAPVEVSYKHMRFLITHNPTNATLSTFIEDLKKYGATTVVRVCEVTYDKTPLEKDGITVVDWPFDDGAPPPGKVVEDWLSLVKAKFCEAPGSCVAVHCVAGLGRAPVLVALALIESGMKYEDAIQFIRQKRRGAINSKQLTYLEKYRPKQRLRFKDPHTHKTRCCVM

Row | Molecule | % Phosphatase Activity (compared to DMSO) PRL-1 (recombinant PRL-1; [1]) | % Phosphatase Activity (compared to DMSO) PRL-2 (recombinant PRL-2; [1]) | % Phosphatase Activity (compared to DMSO) PRL-3 (recombinant PRL-3; [1]) | further results
1 | Oc1c(I)cc(Cl)c2cccnc12 [5-Chloro-8-hydroxy-7-iodoquinoline] | 96% | 90% | 71% | 
2 | CCCCCCCCCCCCCCCC(=O)O[C@@H]1[C@@H](O)[C@@H](O)[C@@H]([C@H](NC(=O)[C@@H]2C[C@@H](CCC)CN2C)[C@H](C)Cl)O[C@@H]1SC.Cl [Clindamycin palmitate HCl] | 107% | 133% | 106% | 
3 | Cc1onc(-c2ccccc2)c1-c1ccc(S(N)(=O)=O)cc1 [Valdecoxib] |  |  |  | % Phosphatase Activity (compared to DMSO) PRL-1 (recombinant PRL-1; [2]): 97%; % Phosphatase Activity (compared to DMSO) PRL-2 (recombinant PRL-2; [2]): 103%; % Phosphatase Activity (compared to DMSO) PRL-3 (recombinant PRL-3; [2]): 80%
4 | O=C(O[C@H]1CN2CCC1CC2)N1CCc2ccccc2[C@@H]1c1ccccc1 [Solifenacin succinate] |  |  |  | % Phosphatase Activity (compared to DMSO) PRL-1 (recombinant PRL-1; [2]): 88%; % Phosphatase Activity (compared to DMSO) PRL-2 (recombinant PRL-2; [2]): 99%; % Phosphatase Activity (compared to DMSO) PRL-3 (recombinant PRL-3; [2]): 114%
5 | Cn1ncc(Cl)c1-c1cc(C(=O)N[C@H](CN)Cc2ccc(F)c(F)c2)oc1Cl [Uprosertib (GSK2141795)] |  |  |  | % Phosphatase Activity (compared to DMSO) PRL-1 (recombinant PRL-1; [2]): 95%; % Phosphatase Activity (compared to DMSO) PRL-2 (recombinant PRL-2; [2]): 95%; % Phosphatase Activity (compared to DMSO) PRL-3 (recombinant PRL-3; [2]): 103%
6 | CC(=O)OCC(=O)[C@@]12OC(C)(C)O[C@@H]1C[C@H]1[C@@H]3C[C@H](F)C4=CC(=O)C=C[C@]4(C)[C@@]3(F)[C@@H](O)C[C@@]12C [Fluocinonide] | 91% | 92% | 89% | 
7 | CNS(=O)(=O)C[C@H]1CC[C@H](N(C)c2ncnc3[nH]ccc23)CC1 [Oclacitinib] | 98% | 81% | 80% | 
8 | N#C[C@@H]1C[C@@H]2C[C@@H]2N1C(=O)[C@@H](N)C12CC3CC(CC(O)(C3)C1)C2 [Saxagliptin hydrate] | 93% | 80% | 86% | 
9 | COc1ncnc(NS(=O)(=O)c2ccc(N)cc2)c1OC [Sulfadoxine] |  |  |  | % Phosphatase Activity (compared to DMSO) PRL-1 (recombinant PRL-1; [2]): 110%; % Phosphatase Activity (compared to DMSO) PRL-2 (recombinant PRL-2; [2]): 106%; % Phosphatase Activity (compared to DMSO) PRL-3 (recombinant PRL-3; [2]): 76%
10 | NC(N)=Nc1nc(CSCCC(N)=NS(N)(=O)=O)cs1 [Famotidine] |  |  |  | % Phosphatase Activity (compared to DMSO) PRL-1 (recombinant PRL-1): 110%; % Phosphatase Activity (compared to DMSO) PRL-2 (recombinant PRL-2): 115%; % Phosphatase Activity (compared to DMSO) PRL-3 (recombinant PRL-3): 86%
11 | Cc1cc(C(C)(C)C)cc(C)c1CC1=NCCN1 [Xylometazoline HCl] |  |  |  | % Phosphatase Activity (compared to DMSO) PRL-1 (recombinant PRL-1; [2]): 98%; % Phosphatase Activity (compared to DMSO) PRL-2 (recombinant PRL-2; [2]): 117%; % Phosphatase Activity (compared to DMSO) PRL-3 (recombinant PRL-3; [2]): 88%
12 | CNC(=C[N+](=O)[O-])NCCSCc1csc(CN(C)C)n1 [Nizatidine] | 87% | 105% | 97% | 
13 | O=C(O)c1cc(=O)c2ccccc2o1 [Chromocarb] | 95% | 102% | 85% | 
14 | C=C1CC[C@H](O)C/C1=C/C=C1\CCC[C@]2(C)[C@@H]([C@H](C)CCCC(C)C)CC[C@@H]12 [Vitamin D3] |  |  |  | % Phosphatase Activity (compared to DMSO) PRL-1 (recombinant PRL-1; [2]): 85%; % Phosphatase Activity (compared to DMSO) PRL-2 (recombinant PRL-2; [2]): 95%; % Phosphatase Activity (compared to DMSO) PRL-3 (recombinant PRL-3; [2]): 63%
15 | CN(C)CCN(Cc1ccccc1)c1ccccn1 [Tripelennamine HCl] |  |  |  | % Phosphatase Activity (compared to DMSO) PRL-1 (recombinant PRL-1; [2]): 91%; % Phosphatase Activity (compared to DMSO) PRL-2 (recombinant PRL-2; [2]): 119%; % Phosphatase Activity (compared to DMSO) PRL-3 (recombinant PRL-3; [2]): 112%
16 | Cl.NCC(=O)CCC(=O)O [5-Aminolevulinic acid HCl] | 106% | 130% | 86% | 
17 | CC(=O)O[C@]1(C(C)=O)CC[C@H]2[C@@H]3C=C(Cl)C4=CC(=O)CC[C@]4(C)[C@H]3CC[C@@]21C [Chlormadinone acetate] | 85% | 76% | 81% | 
18 | Atosiban Acetate | 86% | 80% | 90% | 
19 | CC(=O)/N=c1/sc(S(N)(=O)=O)nn1C [Methazolamide] | 110% | 114% | 88% | 
20 | C1=N/C2=N/c3ccc(OCCN4CCCC4)c(c3)COC/C=C/COCc3cccc(c3)C(=C1)N2 [Pacritinib (SB1518)] | 95% | 98% | 78% | 
21 | CCCCCCCCCCCC1=C(O)C(=O)C=C(O)C1=O [Embelin, reference compound] | 40% | 58% | 28% | IC50 (recombinant PRL-1; 2.5 µM protein, DiFMUP at KM, read-out: Calculated IC50, PRL-1 phosphatase activity): 114 ± 16 µM; IC50 (recombinant PRL-2; 2.5 µM protein, DiFMUP at KM, read-out: Calculated IC50, PRL-2 phosphatase activity): 124 ± 60 µM; IC50 (recombinant PRL-3; 2.5 µM protein, DiFMUP at KM, read-out: Calculated IC50, PRL-3 phosphatase activity): 52 ± 9 µM
22 | CO[C@@]1(NC(=O)C(C(=O)O)c2ccc(O)cc2)C(=O)N2C(C(=O)O)=C(CSc3nnnn3C)CO[C@@H]21 (stereo partly drawn) [Moxalactam Disodium] | 88% | 97% | 89% | 
23 | CCCCCC(=O)O[C@]1(C(C)=O)CC[C@H]2[C@@H]3CCC4=CC(=O)CC[C@]4(C)[C@H]3CC[C@@]21C [Hydroxyprogesterone caproate] | 91% | 84% | 73% | 
24 | C[C@H](CCC(=O)O)[C@H]1CC[C@H]2[C@@H]3CC[C@@H]4C[C@H](O)CC[C@]4(C)[C@H]3C[C@H](O)[C@]12C [Deoxycholic acid] | 89% | 73% | 96% | 
25 | O=c1cc[nH]c(=O)[nH]1 [Uracil] |  |  |  | % Phosphatase Activity (compared to DMSO) PRL-1 (recombinant PRL-1; [2]): 100%; % Phosphatase Activity (compared to DMSO) PRL-2 (recombinant PRL-2; [2]): 93%; % Phosphatase Activity (compared to DMSO) PRL-3 (recombinant PRL-3; [2]): 69%
26 | O=c1c(-n2ccnn2)c[nH]n1-c1cc(N2CCOCC2)ncn1 [Molidustat (BAY 85-3934)] | 90% | 74% | 84% | 
27 | O=C(O)CCCCCCCC(=O)O [Azelaic acid] | 94% | 98% | 95% | 

Second part, led by results:

Row | % Phosphatase Activity (compared to DMSO) PRL-1 (recombinant PRL-1; [1]) | % Phosphatase Activity (compared to DMSO) PRL-2 (recombinant PRL-2; [1]) | % Phosphatase Activity (compared to DMSO) PRL-3 (recombinant PRL-3; [1]) | Molecule | further results
28 | 80% | 71% | 71% | Cc1nc2ccc(CN(C)c3ccc(C(=O)N[C@@H](CCC(=O)O)C(=O)O)s3)cc2c(=O)[nH]1 [Raltitrexed] | 
29 | 93% | 75% | 85% | CCCNS(=O)(=O)Nc1ncnc(OCCOc2ncc(Br)cn2)c1-c1ccc(Br)cc1 [Macitentan] | 
30 | 98% | 110% | 83% | Cc1[nH]c(=O)c(C#N)cc1-c1ccncc1 [Milrinone] | 
31 | 99% | 104% | 77% | COc1ccc(C2CNC(=O)C2)cc1OC1CCCC1 (stereo not drawn) [Rolipram] | 
32 | 85% | 72% | 91% | Cn1cnc2c(F)c(Nc3ccc(Br)cc3F)c(C(=O)NOCCO)cc21 [MEK162 (ARRY-162, ARRY-438162)] | 
33 | 96% | 78% | 97% | CCNC1(C(N)=O)CCN(c2ncnc3c2nc(-c2ccccc2Cl)n3-c2ccc(Cl)cc2)CC1.Cl [Otenabant (CP-945598) HCl] | 
34 | 133% | 151% | 133% | Cc1ccc(F)c(NC(=O)Nc2ccc(-c3cccc4[nH]nc(N)c34)cc2)c1 [Linifanib (ABT-869)] | 
35 | 93% | 87% | 90% | CC(=O)O[C@@]12CO[C@@H]1C[C@H](O)[C@@]1(C)C(=O)[C@H](O)C3=C(C)[C@@H](OC(=O)[C@H](O)[C@@H](NC(=O)OC(C)(C)C)c4ccccc4)C[C@@](O)([C@@H](OC(=O)c4ccccc4)[C@H]21)C3(C)C [Docetaxel Trihydrate] | 
36 | 105% | 81% | 87% | OC(CNCC(O)C1CCc2cc(F)ccc2O1)C1CCc2cc(F)ccc2O1 (stereo not drawn) [Nebivolol] | 
37 | 93% | 100% | 76% | CCCC1O[C@@H]2C[C@H]3[C@@H]4CCC5=CC(=O)C=C[C@]5(C)[C@H]4[C@@H](O)C[C@]3(C)[C@]2(C(=O)CO)O1 (stereo partly drawn) [Budesonide] | 
